Data set [1] has as its system human corneal epithelial cells (hCEPIC). The experiment in a line: Permeability test across stratified human corneal epithelial cells. Format: in vitro ADME. Conditions: for Permeability (Papp): 50 μM, stratified human corneal epithelial cells. The procedure:
(§1) The objective of this study was to evaluate the apparent permeability coefficient (Papp) value of the peptides across stratified human corneal epithelial cells. All peptides were tested at 50 μM in duplicate.
(§2) In particular, human corneal epithelial cells (hCEPIC) were stratified on Transwell cell culture inserts (Corning, N.Y., USA). The permeation experiments were performed taking samples from receiver chambers at 5, 30, 60 minutes time points and from donor chambers at the same time points. Each aliquot collected was analyzed by HPLC instrument (Knauer) equipped with C18 Vertex Plus Column (Knauer) thermostatically controlled at 40° C. The rate (apparent permeability coefficient, Papp) of the study compounds was calculated and compared to the Papp values of the low and high permeability markers, 6-carboxyfluorescein and Rhodamine B, respectively.
(§3) The apparent permeability coefficient (Papp) was calculated according to Equation: Papp=(I/A*C0)(dM/dt)
(§4) where dM/dt is the flux (nanomoles per second) across the cell layers;
(§5) A (square centimeters) is the exposed surface area of the insert membrane;
(§6) C0 is the initial drug concentration (micromolar) in the donor compartment at t=0 (Xiang et al., Drug Metab Dispos. 2009 May; 37(5):992-8.

Data set [2] is described as follows: Isoelectric point, log D and log P (SiriusT3). Format: physicochemical. Conditions: for IP (isoelectric point): 25±1° C., 0.15 M KCl.
Data set [3] can be described thus: Permeability test across stratified human corneal epithelial cells. It counts as in vitro ADME. The procedure:
as §1, §2, §3, §4, §5, §6

For another data set, the target named is T1, mouse IL-17A (Mus musculus, UniProt Q62386).
T1 sequence (Q62386 26-158): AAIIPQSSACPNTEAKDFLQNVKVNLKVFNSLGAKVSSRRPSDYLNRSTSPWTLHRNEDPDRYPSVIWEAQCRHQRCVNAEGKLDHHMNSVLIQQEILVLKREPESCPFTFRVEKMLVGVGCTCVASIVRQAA
Kind of data set: Peptide-IL-17A affinity test (SPR). Format: binding. Here is the method:
The peptide of the prior art HAP (SEQ ID NO:1) and peptide of SEQ ID NO:2 were tested for affinity for mIL-17A, as described below. For the immobilization of mouse IL-17A protein, amine coupling chemistry was used. […] Covalent immobilization of mIL17 results in stable attachment of 3000 RU of ligand to the surface. […] The molecules were diluted at different concentrations (from 62.5 to 1000 nM) in HBS-EP buffer and injected on the sensorchip for 4 minutes and allowed to dissociate for 5 minutes. After each run, the sensorchip was regenerated by 2 M NaCl injection. Based on the sensorgrams (FIG. 1, panel A) and using the BIAevaluation software, the Scatchard analysis of the RU values at equilibrium allowed to determine an affinity constant as a function of the analyte concentration in solution (FIG. 6, panel B).

Data set [4] is classed as physicochemical. The following applies: pH 7.8. In a few lines:
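Peptides dissolved in phosphate buffer pH 7.8 as 10 mM stocks (more dilute for less soluble ones) and stored at 25 °C. Content measured by reversed-phase UHPLC (C18, 0.5% formic acid water/acetonitrile gradient, DAD 220-400 nm, ESI-MS ion trap) after 1:100 dilution to 100 μM, against 100 μM standards, at T0, 3 days and 1 week.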

The target of data set [5] is IL-17RA/IL17RC dimerization induced by IL-17A (Homo sapiens, UniProt Q16552). The experiment in a line: IL-17RA/IL17RC dimerization assay in response to IL-17A (PathHunter Cytokine Receptor Assay). It counts as cell-based. Conditions: IL-17A at EC80; read-out: IC50 in IL-17RA/IL7RC dimerization assay. The method in brief: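 Receptor dimerization was read as chemiluminescence from complemented β-galactosidase after IL-17A at EC80 concentration for 6–16 h at 37 °C. Peptides were added 60 min before agonist, at 37 °C or room temperature, with 1% vehicle. Percent inhibition used the EC80-stimulated and vehicle wells as references.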

Another data set deals with T2, IL-17A (Homo sapiens, UniProt Q16552).
T2 construct: host or cells: psoriasis patients (endogenous IL-17A)
Conditions: psoriasis, clinical trials; cited from earlier work.

Setting [6] is: octanol/ISA water, read-out: logP.
[7] abbreviates: pH 7.4, pH 7.4, octanol/ISA water, read-out: Log D (7.4).

Where two headings read alike, the source gives them in different places. Residues, ends and D or L forms follow the SMILES beside them. A value given as a limit tells only on which side of the number the result lay.

Results on nine compounds are retold here after patent US11236129B2, “IL-17A binding peptides and medical uses thereof” (Dompe' Farmaceutici S.P.A., priority 2018, dated 2022).

Chain of IL-17RA/IL17RC dimerization induced by IL-17A (Q16552 24-155): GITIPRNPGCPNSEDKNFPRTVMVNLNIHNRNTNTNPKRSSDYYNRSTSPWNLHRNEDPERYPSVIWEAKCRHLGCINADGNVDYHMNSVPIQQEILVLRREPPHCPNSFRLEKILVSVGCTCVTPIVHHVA
T2 sequence (Q16552 24-155): as above

Turning to `O=C(O)c1ccc2c(c1)C1(OC2=O)c2ccc(O)cc2Oc2cc(O)ccc21` [6-carboxyfluorescein, reference compound], the “Permeability (Papp)” value in data set [1] is on record as 0.61±0.33 10^−6 cm/sec.

With `CCN(CC)c1ccc2c(-c3ccccc3C(=O)O)c3ccc(=[N+](CC)CC)cc-3oc2c1.[Cl-]` [Rhodamine B, reference compound], in data set [1], the “Permeability (Papp)” value is 51.26±5.44 10^−6 cm/sec.

For the compound `CC[C@H](C)[C@H](NC(C)=O)C(=O)N[C@@H](Cc1c[nH]cn1)C(=O)N[C@H](C(=O)N[C@H](C(=O)N[C@H](C(=O)N1CCC[C@H]1C(=O)N[C@@H](C)C(=O)N[C@@H](CC(=O)O)C(=O)N[C@@H](CC(C)C)C(=O)N[C@@H](Cc1c[nH]c2ccccc12)C(=O)N[C@@H](CC(=O)O)C(=O)N[C@@H](Cc1c[nH]c2ccccc12)C(=O)N[C@H](C(=O)N[C@@H](CC(N)=O)C(=O)N[C@@H](CCCCN)C(N)=O)[C@@H](C)CC)[C@@H](C)CC)[C@@H](C)O)C(C)C` [SEQ ID NO: 1, reference compound] (Ac-IHVTIPADLWDWINK-NH2), the logP – broadly, a log measure of how a compound divides between an organic and an aqueous phase – in data set [2] (logP) is -5.98. The logD in data set [2] (pH 7.4, Log D (7.4)) was -3.68. In addition, the Papp in data set [3] (Permeability (Papp ± SE)) and in data set [3] (Permeability (Papp)) was 19.3 ×10⁻⁶ cm/s throughout. Binding at mouse IL-17A was put at a Kd of 3700 nM. Besides, the solubility – broadly, the dissolved amount per volume that the medium holds – in data set [4] is above 10000 µM.

`CC[C@H](C)[C@H](NC(=O)[C@@H](NC(=O)[C@@H](NC(=O)[C@H](Cc1c[nH]cn1)NC(=O)[C@@H](NC(C)=O)C(C)C)C(C)C)[C@@H](C)O)C(=O)N1CCC[C@H]1C(=O)N[C@@H](C)C(=O)N[C@@H](CCC(=O)O)C(=O)N[C@@H](CC(C)C)C(=O)N[C@@H](Cc1c[nH]c2ccccc12)C(=O)N[C@@H](CCC(=O)O)C(=O)N[C@@H](Cc1c[nH]c2ccccc12)C(=O)N[C@H](C(=O)N[C@@H](CCCNC(=N)N)C(=O)N[C@@H](CCCNC(=N)N)C(N)=O)C(C)C` [SEQ ID NO: 111] (Ac-VHVTIPAELWEWVRR-NH2): the “IP (isoelectric point)” value in data set [2] was 8.99. The logP in data set [2] (setting [6]) was -0.38. Moreover, in data set [2] (setting [7]), the logD is -0.93. In addition, the “permeability compared to high permeability standard Rhodamine B (in words)” value in data set [1] is “higher permeability compared to Rhodamine B”. The Papp – broadly, the rate of passage across a membrane or cell layer, normalised by area and donor concentration – in data set [3] (Permeability (Papp)) came to 83.7 ×10⁻⁶ cm/s. In addition, in data set [5], the IC50 is below 500 nM. This compound also had a solubility in data set [4] below 50 µM.

Consider `CC[C@H](C)[C@H](NC(=O)[C@H](CCC(N)=O)NC(=O)[C@@H](NC(=O)[C@H](Cc1c[nH]cn1)NC(=O)[C@@H](NC(C)=O)C(C)C)C(C)C)C(=O)N1CCC[C@H]1C(=O)N[C@@H](C)C(=O)N[C@@H](CC(=O)O)C(=O)N[C@@H](CC(C)C)C(=O)N[C@@H](Cc1c[nH]c2ccccc12)C(=O)N[C@@H](CCC(=O)O)C(=O)N[C@@H](Cc1c[nH]c2ccccc12)C(=O)N[C@H](C(=O)N[C@@H](CCCNC(=N)N)C(=O)N[C@@H](CCCNC(=N)N)C(N)=O)C(C)C` [SEQ ID NO: 113] (Ac-VHVQIPADLWEWVRR-NH2), for which the “IP (isoelectric point)” value in data set [2] stood at 8.99. Also, the lipophilicity (logP) in data set [2] (setting [6]) was -0.13. Besides, the logD in data set [2] (setting [7]) is -3.47. Moreover, in data set [1], the “permeability compared to high permeability standard Rhodamine B (in words)” value is recorded as “higher permeability compared to Rhodamine B”. Further, in data set [3] (Permeability (Papp)), the Papp stood at 76.8 ×10⁻⁶ cm/s. In data set [5], the IC50 was below 500 nM. Also, the solubility in data set [4] is below 50 µM.

Take `CC[C@H](C)[C@H](NC(=O)[C@@H](NC(=O)[C@@H](NC(=O)[C@H](Cc1c[nH]cn1)NC(=O)[C@@H](NC(C)=O)C(C)C)C(C)C)[C@@H](C)O)C(=O)N1CCC[C@H]1C(=O)N[C@@H](CCC(N)=O)C(=O)N[C@@H](CC(=O)O)C(=O)N[C@@H](CC(C)C)C(=O)N[C@@H](Cc1c[nH]c2ccccc12)C(=O)N[C@@H](CCC(=O)O)C(=O)N[C@@H](Cc1c[nH]c2ccccc12)C(=O)N[C@H](C(=O)N[C@@H](CCCNC(=N)N)C(=O)N[C@@H](CCCNC(=N)N)C(N)=O)C(C)C` [SEQ ID NO: 115] (Ac-VHVTIPQDLWEWVRR-NH2): the “IP (isoelectric point)” value in data set [2] worked out at 8.99. In addition, the logP in data set [2] (setting [6]) was -5.94. Further, in data set [2] (setting [7]), the logD is -3.91. Moreover, in data set [1], the “permeability compared to high permeability standard Rhodamine B (in words)” value is recorded as “higher permeability compared to Rhodamine B”. The compound also returned a Papp in data set [3] (Permeability (Papp)) of 68.8 ×10⁻⁶ cm/s. Also, the IC50 in data set [5] is below 500 nM. This compound also came in with a solubility in data set [4] below 50 µM.

As to `CC[C@H](C)[C@H](NC(=O)[C@@H](NC(=O)[C@@H](NC(=O)[C@H](Cc1c[nH]cn1)NC(=O)[C@@H](NC(C)=O)C(C)C)C(C)C)[C@@H](C)O)C(=O)N1CCC[C@H]1C(=O)N[C@@H](C)C(=O)N[C@@H](CC(=O)O)C(=O)N[C@@H](CC(C)C)C(=O)N[C@@H](Cc1c[nH]c2ccccc12)C(=O)N[C@@H](CCC(=O)O)C(=O)N[C@@H](Cc1c[nH]c2ccccc12)C(=O)N[C@@H](Cc1ccccc1)C(=O)N[C@@H](CCCNC(=N)N)C(=O)N[C@@H](CCCNC(=N)N)C(N)=O` [SEQ ID NO: 121] (Ac-VHVTIPADLWEWFRR-NH2), the “IP (isoelectric point)” value in data set [2] came out at 8.99. In addition, the logP in data set [2] (setting [6]) was -0.51. Moreover, the logD in data set [2] (setting [7]) was -1.47. The compound further gave a Papp in data set [3] (Permeability (Papp)) of 47.1 ×10⁻⁶ cm/s. Further, the IC50 in data set [5] is below 500 nM. This compound returned a solubility in data set [4] below 50 µM.

For ixekizumab, the “patient population with severity of the disease reduced by at least 75% (PASI75)” value with IL-17A was 80%.

secukinumab: the “patient population with severity of the disease reduced by at least 75% (PASI75)” value in the data set with IL-17A is given as 80%.
